Experimental data reported in PMC6391970, “Design, Synthesis and Characterization of Covalent KDM5 Inhibitors” (Angewandte Chemie (International Ed. in English), 2018).

How the values were obtained:
Assay type in all cases: biochemical
KDM4B = biological target: T1, KDM4B (Homo sapiens, UniProt O94953); test: KDM AlphaScreen selectivity panel, KDM4B; conditions: for IC50: AlphaScreen after 120 min pre-incubation, read-out: KDM IC50 4B; for SI over KDM5B, 4B: KDM4B IC50/KDM5B IC50
T1 sequence (O94953 1-1096): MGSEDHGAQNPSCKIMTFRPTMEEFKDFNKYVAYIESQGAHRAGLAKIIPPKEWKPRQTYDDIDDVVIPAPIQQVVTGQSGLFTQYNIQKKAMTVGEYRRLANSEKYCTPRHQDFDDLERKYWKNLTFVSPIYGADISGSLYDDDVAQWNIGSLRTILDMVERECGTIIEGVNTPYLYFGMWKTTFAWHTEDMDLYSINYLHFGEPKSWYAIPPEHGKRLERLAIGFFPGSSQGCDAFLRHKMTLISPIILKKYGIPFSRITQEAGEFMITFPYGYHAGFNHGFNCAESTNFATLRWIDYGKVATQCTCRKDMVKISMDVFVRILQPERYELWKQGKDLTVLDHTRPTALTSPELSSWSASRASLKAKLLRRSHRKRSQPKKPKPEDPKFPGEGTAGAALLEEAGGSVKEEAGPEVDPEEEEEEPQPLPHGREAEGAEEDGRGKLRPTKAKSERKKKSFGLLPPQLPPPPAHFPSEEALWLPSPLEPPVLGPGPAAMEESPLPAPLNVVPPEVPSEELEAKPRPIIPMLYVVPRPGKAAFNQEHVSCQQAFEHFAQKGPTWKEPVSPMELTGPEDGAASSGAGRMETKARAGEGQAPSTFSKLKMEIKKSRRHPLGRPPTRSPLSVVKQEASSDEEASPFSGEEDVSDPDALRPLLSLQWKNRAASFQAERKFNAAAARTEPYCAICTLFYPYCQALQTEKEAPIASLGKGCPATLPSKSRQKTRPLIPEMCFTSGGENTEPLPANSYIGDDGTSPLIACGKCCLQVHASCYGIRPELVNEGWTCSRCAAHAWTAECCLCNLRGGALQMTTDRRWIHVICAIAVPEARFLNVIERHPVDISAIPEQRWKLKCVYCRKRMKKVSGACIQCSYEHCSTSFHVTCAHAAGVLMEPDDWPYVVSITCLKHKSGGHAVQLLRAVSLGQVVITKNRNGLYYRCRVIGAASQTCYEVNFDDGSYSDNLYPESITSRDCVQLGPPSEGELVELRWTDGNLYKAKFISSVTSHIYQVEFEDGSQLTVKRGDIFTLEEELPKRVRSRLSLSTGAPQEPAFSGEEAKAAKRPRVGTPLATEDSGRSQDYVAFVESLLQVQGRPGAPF
Description: (§1) A panel of JmjC KDMs was tested by AlphaScreen to determine the selectivity of the compounds (Table S2). […]
(§2) KDM alpha screen selectivity
(§3) Inhibition of histone demethylases was assessed using the histone demethylase AlphaScreen assay (Amplified Luminescence Proximity Homogenous Assay) as previously reported.[4] The basis of this assay for lysine demethylases have been widely described.[5] In brief, the assay was performed in 384-well plate format using white proxiplates (PerkinElmer), and transfer of titrations of compounds (100 nl) was performed using an ECHO 550 acoustic dispenser […]
(§4) Tween- 20) containing the appropriate demethylase enzyme (see Supplementary table 1 for final concentrations) was transferred to each well of a 384-well proxiplate with a Multidrop™ Combi Reagent Dispenser, and the enzymes allowed to pre-incubate for 120 minutes with compound (final concentration of DMSO was 1%). After that time, the enzyme reaction was initiated by addition of 5 µl of a substrate mix consisting of Ketoglutarate (2-OG), Ferrous Ammonium Sulphate (FAS), L-Ascorbic Acid (LAA) and biotinylated peptide substrate (see Supporting table X for final assay concentrations) and the reaction incubated for the indicated time at room temperature. Reaction was stopped by the addition of 5 μl of assay buffer containing EDTA (7.5 mM) and NaCl (400 mM). Streptavidin Donor beads (0.08 mg/ml) and Protein-A conjugated acceptor beads (0.08 mg/ml) (AlphaScreen General IgG detection kit was from Perkin Elmer) were pre-incubated for 1 hour with an antibody to the product methyl mark (Supplementary Table 1) and the presence of biotin-H3-product was detected by addition of 5 µl of the pre-incubated AlphaScreen beads (final concentrations of 0.02 mg/ml with respect to acceptor and donor beads). Detection was allowed to proceed for 2 hour at room temperature and the assay plates read in a BMG Labtech Pherastar FS plate reader (excitation, 680 nm; emission, 570 […]
(§5) IC50(t) = Ki (1 + K ) . ( η . k .t − 1) (1) […]
(§6) Table S4. AlphaScreen assay conditions for the KDM selectivity panel

KDM4C = biological target: T2, KDM4C (Homo sapiens, UniProt Q9H3R0); test: KDM AlphaScreen selectivity panel, KDM4C; conditions: for IC50: AlphaScreen after 120 min pre-incubation, read-out: KDM IC50 4C; for SI over KDM5B, 4C: KDM4C IC50/KDM5B IC50
T2 sequence (Q9H3R0 1-1056): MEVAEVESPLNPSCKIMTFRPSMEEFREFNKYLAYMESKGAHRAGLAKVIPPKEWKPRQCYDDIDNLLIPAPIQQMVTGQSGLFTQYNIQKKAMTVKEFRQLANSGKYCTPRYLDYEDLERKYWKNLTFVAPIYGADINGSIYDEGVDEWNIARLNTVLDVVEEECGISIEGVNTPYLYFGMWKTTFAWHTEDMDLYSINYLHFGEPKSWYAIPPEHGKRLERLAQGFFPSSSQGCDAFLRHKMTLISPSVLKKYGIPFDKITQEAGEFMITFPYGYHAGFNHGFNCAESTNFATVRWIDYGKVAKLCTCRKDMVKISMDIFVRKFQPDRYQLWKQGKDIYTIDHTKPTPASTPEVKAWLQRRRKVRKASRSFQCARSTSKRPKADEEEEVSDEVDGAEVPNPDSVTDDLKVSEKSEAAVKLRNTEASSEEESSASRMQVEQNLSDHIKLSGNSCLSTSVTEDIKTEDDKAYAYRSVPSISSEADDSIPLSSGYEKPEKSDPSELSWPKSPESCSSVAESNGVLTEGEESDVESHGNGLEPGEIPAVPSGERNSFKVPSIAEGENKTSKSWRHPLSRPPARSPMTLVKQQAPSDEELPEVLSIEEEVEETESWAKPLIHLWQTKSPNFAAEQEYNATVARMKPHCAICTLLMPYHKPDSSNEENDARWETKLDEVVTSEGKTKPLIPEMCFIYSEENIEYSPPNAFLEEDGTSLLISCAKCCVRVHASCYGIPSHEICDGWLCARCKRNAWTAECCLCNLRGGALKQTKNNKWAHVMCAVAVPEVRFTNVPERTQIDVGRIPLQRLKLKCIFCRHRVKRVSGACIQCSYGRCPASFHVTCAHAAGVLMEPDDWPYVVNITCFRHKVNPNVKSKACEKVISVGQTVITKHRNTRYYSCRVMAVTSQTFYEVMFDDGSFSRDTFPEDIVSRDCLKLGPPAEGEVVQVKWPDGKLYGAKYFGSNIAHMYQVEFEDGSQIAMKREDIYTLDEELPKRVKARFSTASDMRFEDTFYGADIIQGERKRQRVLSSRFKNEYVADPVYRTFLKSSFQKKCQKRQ
Description: as §1, §2, §3, §4, §5, §6

KDM5D = KDM5D (Homo sapiens, UniProt Q9BY66); test: KDM AlphaScreen selectivity panel, KDM5D; conditions: for IC50: AlphaScreen after 120 min pre-incubation, read-out: KDM IC50 5D; for SI over KDM5B, 5D: KDM5D IC50/KDM5B IC50
Chain of KDM5D (Q9BY66 whole entry): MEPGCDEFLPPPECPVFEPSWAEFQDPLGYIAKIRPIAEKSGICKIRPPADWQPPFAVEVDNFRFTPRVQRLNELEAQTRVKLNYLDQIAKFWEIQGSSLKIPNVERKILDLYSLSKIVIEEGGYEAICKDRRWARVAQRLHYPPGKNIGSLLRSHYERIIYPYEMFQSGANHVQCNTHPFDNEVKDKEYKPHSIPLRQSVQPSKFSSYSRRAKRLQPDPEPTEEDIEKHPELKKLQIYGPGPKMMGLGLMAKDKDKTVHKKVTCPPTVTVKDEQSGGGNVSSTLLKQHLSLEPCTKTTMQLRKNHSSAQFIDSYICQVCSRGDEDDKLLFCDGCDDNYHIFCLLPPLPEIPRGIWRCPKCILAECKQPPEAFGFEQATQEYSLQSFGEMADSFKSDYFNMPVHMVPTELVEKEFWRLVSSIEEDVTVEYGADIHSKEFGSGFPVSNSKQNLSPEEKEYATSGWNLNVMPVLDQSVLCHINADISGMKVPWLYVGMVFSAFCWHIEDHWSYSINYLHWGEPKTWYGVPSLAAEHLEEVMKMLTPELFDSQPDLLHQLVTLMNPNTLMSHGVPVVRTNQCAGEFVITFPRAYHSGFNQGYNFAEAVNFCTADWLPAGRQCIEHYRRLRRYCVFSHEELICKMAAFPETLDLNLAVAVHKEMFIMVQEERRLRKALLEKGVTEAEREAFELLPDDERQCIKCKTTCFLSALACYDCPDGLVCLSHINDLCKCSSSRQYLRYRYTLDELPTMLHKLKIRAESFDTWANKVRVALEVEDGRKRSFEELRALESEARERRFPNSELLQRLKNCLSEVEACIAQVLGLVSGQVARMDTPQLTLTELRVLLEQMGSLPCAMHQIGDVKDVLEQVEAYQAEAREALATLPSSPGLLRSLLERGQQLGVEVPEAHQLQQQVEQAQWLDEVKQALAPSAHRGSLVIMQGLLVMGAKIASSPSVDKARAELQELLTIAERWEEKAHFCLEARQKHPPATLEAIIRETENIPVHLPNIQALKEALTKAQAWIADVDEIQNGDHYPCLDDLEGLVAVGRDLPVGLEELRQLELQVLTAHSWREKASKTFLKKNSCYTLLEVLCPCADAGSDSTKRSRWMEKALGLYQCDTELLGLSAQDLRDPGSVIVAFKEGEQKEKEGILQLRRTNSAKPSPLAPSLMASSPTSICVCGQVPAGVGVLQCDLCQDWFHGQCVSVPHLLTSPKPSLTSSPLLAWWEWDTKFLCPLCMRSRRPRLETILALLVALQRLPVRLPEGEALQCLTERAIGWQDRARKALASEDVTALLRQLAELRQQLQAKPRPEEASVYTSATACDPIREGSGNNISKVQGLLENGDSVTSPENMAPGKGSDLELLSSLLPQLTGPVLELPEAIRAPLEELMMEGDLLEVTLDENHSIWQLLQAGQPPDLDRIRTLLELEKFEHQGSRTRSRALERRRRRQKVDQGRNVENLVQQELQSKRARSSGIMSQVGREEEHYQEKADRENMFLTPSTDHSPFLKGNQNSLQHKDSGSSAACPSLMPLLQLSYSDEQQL
Description: as §1, §2, §3, §4, §5, §6

Row | SMILES | IC50 (KDM4B) [nM] | IC50 (KDM4C) [nM] | IC50 (KDM5D) [nM] | SI over KDM5B, 5D (KDM5D) | selectivity over KDM4B (KDM4B) | SI over KDM5B, 4B (KDM4B) | SI over KDM5B, 4C (KDM4C)
1 | C=CC(=O)Nc1cccc(CN(C)CCc2cnn(-c3nccc4c(=O)[nH]cnc34)c2)c1 [Compound 4] | 1100 ± 100 | 1000 ± 300 | 83 ± 7 | 4 |  |  | 
2 | CN(CCc1cnn(-c2nccc3c(=O)[nH]cnc23)c1)Cc1cccc(NC(=O)CCl)c1 [Compound 5] | 700 ± 200 | 300 ± 100 | 48 ± 3 | 5 | more than 60 fold | 68 | 31
3 | CN(C)C/C=C/C(=O)Nc1cccc(CN(C)CCc2cnn(-c3nccc4c(=O)[nH]cnc34)c2)c1 [Compound 6] | 1900 ± 100 | 2300 ± 100 | 702 ± 47 |  |  |  | 
4 | C=CC(=O)NCCOc1ccc(-c2[nH]c3c(C#N)cnn3c(=O)c2C(C)C)cc1 [Compound 9] | 6300 ± 600 | 3200 ± 100 | 252 ± 10 | 4 |  | 97 | 49

Second part, the compound after the results:

Row | IC50 (KDM4B) [nM] | IC50 (KDM4C) [nM] | IC50 (KDM5D) [nM] | SI over KDM5B, 5D (KDM5D) | selectivity over KDM4B (KDM4B) | SI over KDM5B, 4B (KDM4B) | SI over KDM5B, 4C (KDM4C) | SMILES
5 | 4100 ± 200 | 1800 ± 100 | 38 ± 1 | 5 | > 500 fold | 572 | 253 | CC(C)c1c(-c2cnn(CCNC(=O)CCl)c2)[nH]c2c(C#N)cnn2c1=O [Compound 7]
6 | 14200 ± 1100 | 4000 ± 100 | 78 ± 7 | 5 | > 500 fold | 831 | 234 | C=CC(=O)N1CCC(n2cc(-c3[nH]c4c(C#N)cnn4c(=O)c3C(C)C)cn2)CC1 [Compound 10]
7 | 4600 ± 100 | 1500 ± 100 | 59 ± 2 | 7 |  | 513 | 171 | CC(C)c1c(-c2cnn(C3CCN(C(=O)CCl)CC3)c2)[nH]c2c(C#N)cnn2c1=O [Compound 11]
